How the values were obtained:
DEBSMod6+TE [1] = biological target: T1, DEBSMod6+TE (Saccharopolyspora erythraea, UniProt Q03133); assay: Acyl-CoA hydrolysis by DEBSMod6+TE (DTNB assay); format: biochemical
T1 construct: the sixth module of DEBS, including the terminal thioesterase (DEBSMod6+TE); His6 (C); made in house; host or cells: E. coli BAP1
Protocol: Hydrolytic activity of DEBSMod6+TE was measured by monitoring the reaction of free CoA with DTNB as described previously (Huang, F., et al., Chem. Biol., 13:475-484 (2006)). Assays were performed at 37° C. in a total volume of 200 μL containing 400 mM sodium phosphate, pH 7.5, 500 μM DTNB, and DEBSMod6+TE (1 μM). Reactions were initiated by addition of acyl-CoA (0.5 mM) and monitored at 412 nm in a Beckman Coulter DU-800 spectrophotometer. Release of CoA was quantified by comparison to a standard curve (5-100 μM).

DEBSMod6+TE [2] = assay: Covalent inhibition assay for DEBSMod6+TE; format: biochemical; conditions: 18 h incubation in F-TKL reaction, then tested for TKL production; preliminary
Protocol: Two triketide reaction mixtures (200 μL) were prepared as described above, one containing fluoromalonate (10 mM) and the other methylmalonate (10 mM). DEBSMod6+TE (10 μM) and NDK-SNAC (2.5 mM) were added to each and the reactions were incubated at 37° C. for 18 h. The protein fraction was isolated from each mixture at room temperature by desalting on a Sephadex G-25 column (3 mL) using 400 mM sodium phosphate, pH 7.5. Fractions were pooled by Bradford assay and concentrated to 200 μL using Amicon Ultra spin concentrators (3 kDa MWCO). The isolated DEBSMod6+TE was assayed by adding TCEP (2.5 mM), methylmalonyl-CoA (1 mM) and NDK-SNAC (1 mM) to this mixture to give a final volume of 210 μL and incubating at 37° C. for 3 h, then analyzed by HPLC as described above.

[3] = Stability of fluoromalonyl-CoA solutions; format: physicochemical; conditions: room temperature; in water or D2O
Protocol: Fluoromalonyl-CoA was prepared enzymatically from fluoromalonate and CoA using MatB and ATP. A myokinase/pyruvate kinase/PEP system was also used to regenerate ATP in order to avoid high concentrations of AMP that might inhibit MatB. The reaction mixture (10 mL) contained 100 mM sodium phosphate, pH 7.5, phosphoenolpyruvate (5 mM), TCEP (2.5 mM), magnesium chloride (5 mM), fluoromalonate (2.5 mM), ATP (2.5 mM), pyruvate kinase (36 U), myokinase (20 U), CoA (2 mM) and MatB (5 μM). The mixture was incubated at 37° C. for 6 h and then at room temperature for 16 h before lyophilizing overnight. The residue was dissolved in water (1.6 mL) and acidified to pH ˜2 by addition of 70% perchloric acid (160 μL). Insoluble material was removed by centrifugation at 18,000×g for 10 min. […] HR-ESI-MS [M−H]^−: calculated for C24H36FN2O19P3S, m/z, 870.0989. found m/z 870.0991.

[4] = tested on: malonyl-CoA synthetase (MatB); assay: Malonyl-CoA synthetase (MatB) coupled assay; format: biochemical, S. coelicolor
Protocol: MatB activity was measured using a modified literature method (Williamson, J. R., et al., Method. Enzymol., 434-513 (1969)). The production of AMP was coupled to pyruvate formation by myokinase and pyruvate kinase, which in turn was coupled to NADH oxidation by lactate dehydrogenase. Assays were performed at 30° C. in a total volume of 200 μL containing 100 mM HEPES, pH 7.5, TCEP (1 mM), ATP (2.5 mM), magnesium chloride (5 mM), phosphoenolpyruvate (1 mM), NADH (0.3 mM), myokinase (0.5 U), pyruvate kinase (3.6 U), lactate dehydrogenase (2.6 U), dicarboxylic acid (25 μM-1 mM malonate, 50 μM-10 mM fluoromalonate or 25 μM-1.5 mM methylmalonate) and MatB (26 nM for malonate, 1 μM for fluoromalonate and 200 nM for methylmalonate). The reaction was initiated with addition of CoA (0.5 mM) and monitored at 340 nm in a Beckman Coulter DU-800 spectrophotometer.

T1 sequence (Q03133 1492-3172): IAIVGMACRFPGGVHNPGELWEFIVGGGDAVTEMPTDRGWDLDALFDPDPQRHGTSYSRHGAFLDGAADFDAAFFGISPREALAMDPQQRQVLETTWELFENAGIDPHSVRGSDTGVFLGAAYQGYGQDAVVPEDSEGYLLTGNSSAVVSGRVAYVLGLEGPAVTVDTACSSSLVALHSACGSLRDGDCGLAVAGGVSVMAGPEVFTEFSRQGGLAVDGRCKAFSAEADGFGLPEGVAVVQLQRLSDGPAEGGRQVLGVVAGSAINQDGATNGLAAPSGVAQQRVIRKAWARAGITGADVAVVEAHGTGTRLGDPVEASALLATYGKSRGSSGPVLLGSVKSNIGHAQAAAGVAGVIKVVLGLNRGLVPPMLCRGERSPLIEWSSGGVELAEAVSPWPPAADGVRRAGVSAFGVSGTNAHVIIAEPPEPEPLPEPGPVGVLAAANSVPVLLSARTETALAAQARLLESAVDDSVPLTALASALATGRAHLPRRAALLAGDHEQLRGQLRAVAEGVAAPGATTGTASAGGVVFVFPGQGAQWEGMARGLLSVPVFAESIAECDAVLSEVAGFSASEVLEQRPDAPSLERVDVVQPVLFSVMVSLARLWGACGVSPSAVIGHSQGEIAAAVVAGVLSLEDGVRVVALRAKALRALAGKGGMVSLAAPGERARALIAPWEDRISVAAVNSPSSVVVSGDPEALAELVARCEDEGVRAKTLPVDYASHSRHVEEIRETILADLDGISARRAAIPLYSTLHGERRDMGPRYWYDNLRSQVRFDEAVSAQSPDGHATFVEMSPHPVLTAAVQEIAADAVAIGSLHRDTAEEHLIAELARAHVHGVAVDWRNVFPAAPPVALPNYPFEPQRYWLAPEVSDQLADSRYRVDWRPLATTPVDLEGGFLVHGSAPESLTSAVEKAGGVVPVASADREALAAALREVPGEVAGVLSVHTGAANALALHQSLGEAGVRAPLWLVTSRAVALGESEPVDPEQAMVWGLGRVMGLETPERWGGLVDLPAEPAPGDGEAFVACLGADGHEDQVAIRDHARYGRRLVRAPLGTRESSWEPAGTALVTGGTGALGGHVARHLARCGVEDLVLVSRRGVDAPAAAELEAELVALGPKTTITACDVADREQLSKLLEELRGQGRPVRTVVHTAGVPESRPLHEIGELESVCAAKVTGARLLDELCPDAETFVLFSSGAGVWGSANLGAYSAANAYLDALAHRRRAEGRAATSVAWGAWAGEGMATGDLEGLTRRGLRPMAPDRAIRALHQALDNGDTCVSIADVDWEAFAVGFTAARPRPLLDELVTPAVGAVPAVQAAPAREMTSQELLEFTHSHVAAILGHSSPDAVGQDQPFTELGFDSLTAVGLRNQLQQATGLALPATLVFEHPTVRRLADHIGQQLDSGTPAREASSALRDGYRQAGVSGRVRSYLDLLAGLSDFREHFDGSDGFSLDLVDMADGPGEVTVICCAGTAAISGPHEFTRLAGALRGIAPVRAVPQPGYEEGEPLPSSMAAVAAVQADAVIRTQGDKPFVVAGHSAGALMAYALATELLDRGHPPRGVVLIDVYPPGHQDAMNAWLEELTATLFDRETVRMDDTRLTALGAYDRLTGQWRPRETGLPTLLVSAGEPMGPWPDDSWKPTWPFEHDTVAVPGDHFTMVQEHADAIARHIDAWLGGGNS

| Compound | v0 (rate of acyl-CoA hydrolysis) (DEBSMod6+TE [1]; DEBSMod6 + TE (1 μM), acyl-CoA (500 μM), mean ± s.d. (n = 4)) [µM/min] | Relative rate of acyl-CoA hydrolysis (DEBSMod6+TE [1]; relative to methylmalonyl-CoA) | covalent inactivation of DEBSMod6+TE (DEBSMod6+TE [2]) | stability of solutions [3] | selectivity of MatB for malonate over fluoromalonate [4] [fold] |
| --- | --- | --- | --- | --- | --- |
| CC(C)(COP(=O)(O)OP(=O)(O)OC[C@H]1O[C@@H](n2cnc3c(N)ncnc32)[C@H](O)[C@@H]1OP(=O)(O)O)[C@@H](O)C(=O)NCCC(=O)NCCSC(=O)C(F)C(=O)O (some centres unmarked) [Fluoromalonyl-CoA] | 3.5 ± 0.3 | 2.6 | not due to covalent inactivation of the enzyme | at least 24 h | – |
| Fluoromalonate | – | – | – | – | 103 |

— patent US9944967B2, “Methods for the site-selective introduction of halogen into natural products” (THE REGENTS OF THE UNIVERSITY OF CALIFORNIA, priority 2013, dated 2018)
